From US4451475A, “Cyclic sulphenamide compounds, their production and their medicinal use” (Bayer Aktiengesellschaft, priority 1981, dated 1984)

What was measured:
platelet lipoxygenase = target: T1, platelet lipoxygenase (Homo sapiens, UniProt P18054); test: Inhibition of the platelet lipoxygenase (synthesis of HETE), metabolism of radioactively labelled arachidonic acid by washed human platelets; format: cell-based; conditions: in vitro
T1 construct: metabolism of radioactively labelled arachidonic acid by washed human platelets; endogenous in cells; host or cells: washed human platelets
T1 sequence (P18054 1-663): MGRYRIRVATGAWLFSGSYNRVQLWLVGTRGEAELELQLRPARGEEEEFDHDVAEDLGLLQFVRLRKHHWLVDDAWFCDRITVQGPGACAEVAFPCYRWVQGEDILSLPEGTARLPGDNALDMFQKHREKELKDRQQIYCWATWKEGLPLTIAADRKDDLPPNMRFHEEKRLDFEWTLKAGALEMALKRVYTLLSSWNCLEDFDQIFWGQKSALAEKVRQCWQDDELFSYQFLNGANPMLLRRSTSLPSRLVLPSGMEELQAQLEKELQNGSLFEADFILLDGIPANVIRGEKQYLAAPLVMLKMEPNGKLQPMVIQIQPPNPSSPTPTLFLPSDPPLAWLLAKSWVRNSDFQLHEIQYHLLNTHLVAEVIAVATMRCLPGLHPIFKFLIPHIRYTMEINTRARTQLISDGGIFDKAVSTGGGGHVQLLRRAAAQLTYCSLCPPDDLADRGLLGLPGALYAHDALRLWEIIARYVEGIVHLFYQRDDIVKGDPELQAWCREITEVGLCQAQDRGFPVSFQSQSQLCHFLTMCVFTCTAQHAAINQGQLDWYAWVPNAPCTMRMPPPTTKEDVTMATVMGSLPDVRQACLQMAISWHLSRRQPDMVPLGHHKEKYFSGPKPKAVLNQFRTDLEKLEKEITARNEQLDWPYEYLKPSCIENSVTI
Protocol: Use is made in this test method of the metabolism of radioactively labelled arachidonic acid by washed human platelets. In this in vitro test, the radioactively labelled metabolites are extracted from the reaction mixture and separated by thin layer chromatography. The autoradiogram is evaluated on a thin layer scanner. Under these test conditions, the labelled metabolites are separated from the unreacted arachidonic acid and are subsequently quantitatively evaluated. The distribution of the radioactivity in the cyclooxygenase products, formed during metabolism, thromboxane B2 (TXB2) and 12-hydroxy-5,8,10-heptadecatrienoic acid (HHT) and the lipoxygenase product 12-hydroxy-5,8,11,14-eicosatetraenoic acid (HETE), as influenced by the inhibitors, gives a measure of the inhibition of the enzymes.
The inhibition of lipoxygenase by the sulphenamides according to the invention can be measured by the inhibition of the synthesis of HETE.

leucocytes = test: Inhibition of the migration of leucocytes after local administration by a sponge soaked in active compound under the dorsal skin of rats; format: in vivo; conditions: 10 mg/rat
Source text: The sulphenamides according to the present invention are also active in vivo. […] The following Table 2 summarises the activities of some illustrative sulphenamides after local administration, by introduction of a piece of sponge soaked in the active compound under the dorsal skin of rats.

[1] = tested on: lipoxygenase; cyclooxygenase; conditions: in words; one statement for all four named inhibitors; cited from earlier work

Row | SMILES | Minimum effective inhibitory concentration (at least 50% inhibition), inhibition of the platelet lipoxygenase (synthesis of HETE) (platelet lipoxygenase) | Inhibition of the migration of leucocytes (control = 0%) (leucocytes) [%] | Selectivity/potency of known inhibitors of lipoxygenase [1]
1 | O=C1OCCN1Sc1ccc(Cl)cc1 [Example 4, 3-(4-chlorophenylthio)-oxazolidin-2-one] | 10^-7 g/ml | 80 | 
2 | CCCCCC=CCC=CCC=CCC=CCCCC(=O)O [5,8,11,14-eicosatetraenoic acid] |  |  | either simultaneously inhibitors of cyclooxygenase or only active at very high concentrations
3 | CC(C)(C)c1ccc(SN2CCOC2=O)cc1 [Example 5, 3-(4-tert.-butylphenylthio)-oxazolidin-2-one] |  | 72 | 
4 | O=c1scc(-c2ccccc2)n1Sc1ccc(Cl)cc1 [Example 10, 3-(4-chlorophenylthio)-4-phenylthiazolin-2-one] |  | 53 | 
5 | O=C1OCCN1Sc1ccccc1 [Example 2, 3-phenylthio-oxazolidin-2-one] | 10^-6 g/ml | 55 | 
6 | O=C1CCN(c2ccccc2)N1 [phenidone] |  |  | either simultaneously inhibitors of cyclooxygenase or only active at very high concentrations
7 | CC(Cc1ccc(O)c(O)c1)C(C)Cc1ccc(O)c(O)c1 (stereo not drawn) [nordihydroguaiaretic acid] |  |  | either simultaneously inhibitors of cyclooxygenase or only active at very high concentrations
